Test results published in US8343983B2, “Substituted pyrazolo-pyrimidine compounds” (ArQule, Inc., priority 2009, dated 2013).
Read-outs that look alike come from different tables or passages of the source.

Test system: cancer cells
Experiment: MTS assay: inhibition of cell growth (formazan absorbance at 492 nm after 72 hours with test compound)
Assay type: cell-based
Details: inhibition class
How it was run: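 DMEM with 1% FBS; cells seeded at 3000/well and grown 18 h at 37 °C, then exposed to compound for 72 h and to MTS/PMS for 4 h. IC50 is the concentration giving a 50% absorbance drop; grades are % inhibition bands.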

[1] = Homo sapiens, DLD-1 cells, read-out: DLD-1, MTS 72 hours at 10 uM
[2] = Homo sapiens, KATO III cells, read-out: KATO III, MTS 72 hours at 10 uM
[3] = Homo sapiens, MDA-MB-231 cells, read-out: MDA-MB-231, MTS 72 hours at 10 uM
[4] = Homo sapiens, NCI-H1299 cells, read-out: NCI-H1299, MTS 72 hours at 10 uM
[5] = Homo sapiens, PC-3 cells, read-out: PC-3, MTS 72 hours at 10 uM
[6] = PACA-2 cells, read-out: PACA-2, MTS 72 hours at 10 uM

Compound c1ccc(CCNc2nc3c4c(n[nH]c4n2)CCN3c2ccccc2)cc1 [Compound 220, 6-phenyl-N-(2-phenylethyl)-2,6,7,8-tetrahydro-1,2,3,5,6-pentaazaacenaphthylen-4-amine] has an inhibition at 10 µM [1] of over 79%, an inhibition at 10 µM [2] of over 79% and an inhibition at 10 µM [3] of 50 to 79%. The inhibition at 10 µM [4] was 50 to 79%, the inhibition at 10 µM [5] was 50 to 79% and the inhibition at 10 µM [6] was over 79%.
Compound CCOC(=O)C1CN(Cc2ccccc2)c2nc(SC)nc3[nH]nc1c23 (stereo not drawn) [Compound 222, ethyl 6-benzyl-4-(methylsulfanyl)-2,6,7,8-tetrahydro-1,2,3,5,6-pentaazaacenaphthylene-8-carboxylate] has an inhibition at 10 µM [1] of under 50%, an inhibition at 10 µM [2] of under 50% and an inhibition at 10 µM [3] of under 50%. The inhibition at 10 µM [4] was under 50%, the inhibition at 10 µM [5] was under 50% and the inhibition at 10 µM [6] was under 50%.
O=C(NCc1ccccc1)C1CN(Cc2ccccc2)c2nc(NCc3ccco3)nc3[nH]nc1c23 (stereo not drawn) [Compound 225, N,6-dibenzyl-4-[(furan-2-ylmethyl)amino]-2,6,7,8-tetrahydro-1,2,3,5,6-pentaazaacenaphthylene-8-carboxamide] gave an inhibition at 10 µM [1] of under 50%, an inhibition at 10 µM [2] of under 50% and an inhibition at 10 µM [3] of under 50%. It also gave an inhibition at 10 µM [4] of under 50%, an inhibition at 10 µM [5] of under 50% and an inhibition at 10 µM [6] of under 50%.
In the case of c1ccc(N2CCc3n[nH]c4nc(N5CCCC5)nc2c34)cc1 [Compound 216, 6-phenyl-4-pyrrolidin-1-yl-2,6,7,8-tetrahydro-1,2,3,5,6-pentaazaacenaphthylene], the inhibition at 10 µM [1] is reported as under 50%, the inhibition at 10 µM [2] is reported as under 50% and the inhibition at 10 µM [3] is reported as under 50%. For the same compound, the inhibition at 10 µM [4] was under 50%, the inhibition at 10 µM [5] was under 50% and the inhibition at 10 µM [6] was 50 to 79%.
Compound O=C(NCc1ccccc1)C1CN(Cc2ccccc2)c2nc(NCc3ccccc3Cl)nc3[nH]nc1c23 (stereo not drawn) [Compound 229, N,6-dibenzyl-4-[(2-chlorobenzyl)amino]-2,6,7,8-tetrahydro-1,2,3,5,6-pentaazaacenaphthylene-8-carboxamide] has an inhibition at 10 µM [1] of under 50%, an inhibition at 10 µM [2] of under 50% and an inhibition at 10 µM [3] of under 50%. For the same compound, the inhibition at 10 µM [4] was under 50%, the inhibition at 10 µM [5] was 50 to 79% and the inhibition at 10 µM [6] was under 50%.
In the case of COc1cccc(N2CCN(c3nc4c5c(n[nH]c5n3)CCN4Cc3ccccc3)CC2)c1 [Compound 9, 6-benzyl-4-[4-(3-methoxyphenyl)piperazin-1-yl]-2,6,7,8-tetrahydro-1,2,3,5,6-pentaazaacenaphthylene], the inhibition at 10 µM [1] is reported as under 50%, the inhibition at 10 µM [2] is reported as under 50% and the inhibition at 10 µM [3] is reported as over 79%. It also gave an inhibition at 10 µM [4] of under 50%, an inhibition at 10 µM [5] of over 79% and an inhibition at 10 µM [6] of under 50%.
O=C(CN1CCN(c2nc3c4c(n[nH]c4n2)CCN3Cc2ccccc2)CC1)N1CCCC1 [Compound 83, 6-benzyl-4-[4-(2-oxo-2-pyrrolidin-1-ylethyl)piperazin-1-yl]-2,6,7,8-tetrahydro-1,2,3,5,6-pentaazaacenaphthylene] gave an inhibition at 10 µM [1] of under 50%, an inhibition at 10 µM [2] of under 50% and an inhibition at 10 µM [3] of under 50%. For the same compound, the inhibition at 10 µM [4] was under 50%, the inhibition at 10 µM [5] was under 50% and the inhibition at 10 µM [6] was under 50%.
With Fc1ccc(CCNc2nc3c4c(n[nH]c4n2)CCN3)cc1 [Compound 124, N-[2-(4-fluorophenyl)ethyl]-2,6,7,8-tetrahydro-1,2,3,5,6-pentaazaacenaphthylen-4-amine] the inhibition at 10 µM [1] was under 50%, the inhibition at 10 µM [2] was under 50% and the inhibition at 10 µM [3] was under 50%. For the same compound, the inhibition at 10 µM [4] was under 50%, the inhibition at 10 µM [5] was under 50% and the inhibition at 10 µM [6] was 50 to 79%.
For Cc1ccc(C)c(CCNc2nc3c4c(n[nH]c4n2)CCN3Cc2ccccc2)c1 [Compound 86, 6-benzyl-N-[2-(2,5-dimethylphenyl)ethyl]-2,6,7,8-tetrahydro-1,2,3,5,6-pentaazaacenaphthylen-4-amine], the inhibition at 10 µM [1] was under 50%, the inhibition at 10 µM [2] was 50 to 79% and the inhibition at 10 µM [3] was under 50%. The inhibition at 10 µM [4] was 50 to 79%, the inhibition at 10 µM [5] was under 50% and the inhibition at 10 µM [6] was under 50%.
COc1ccc(CCN(C)c2nc3c4c(n[nH]c4n2)CCN3Cc2ccccc2)cc1OC [Compound 14, 6-benzyl-N-[2-(3,4-dimethoxyphenyl)ethyl]-N-methyl-2,6,7,8-tetrahydro-1,2,3,5,6-pentaazaacenaphthylen-4-amine] gave an inhibition at 10 µM [1] of under 50%, an inhibition at 10 µM [2] of under 50% and an inhibition at 10 µM [3] of under 50%. For the same compound, the inhibition at 10 µM [4] was under 50%, the inhibition at 10 µM [5] was under 50% and the inhibition at 10 µM [6] was under 50%.
COc1ccc2c(CCNc3nc4c5c(n[nH]c5n3)CCN4Cc3ccccc3)c[nH]c2c1 [Compound 98, 6-benzyl-N-[2-(6-methoxy-1H-indol-3-yl)ethyl]-2,6,7,8-tetrahydro-1,2,3,5,6-pentaazaacenaphthylen-4-amine] was tested, and the inhibition at 10 µM [1] was under 50%, the inhibition at 10 µM [2] was 50 to 79% and the inhibition at 10 µM [3] was 50 to 79%. The inhibition at 10 µM [4] was 50 to 79%, the inhibition at 10 µM [5] was over 79% and the inhibition at 10 µM [6] was under 50%.
COc1ccc(CN2CCc3nn(Cc4ccccc4)c4nc(SC)nc2c34)cc1 [Compound 129, 2-benzyl-6-(4-methoxybenzyl)-4-(methylsulfanyl)-2,6,7,8-tetrahydro-1,2,3,5,6-pentaazaacenaphthylene] was tested, and the inhibition at 10 µM [1] was under 50%, the inhibition at 10 µM [2] was under 50% and the inhibition at 10 µM [3] was under 50%. For the same compound, the inhibition at 10 µM [4] was under 50%, the inhibition at 10 µM [5] was under 50% and the inhibition at 10 µM [6] was under 50%.
Cc1cccc(N2CCN(c3nc4c5c(n[nH]c5n3)CCN4Cc3ccccc3)CC2)n1 [Compound 27, 6-benzyl-4-[4-(6-methylpyridin-2-yl)piperazin-1-yl]-2,6,7,8-tetrahydro-1,2,3,5,6-pentaazaacenaphthylene] was tested, and the inhibition at 10 µM [1] was under 50%, the inhibition at 10 µM [2] was under 50% and the inhibition at 10 µM [3] was under 50%. The inhibition at 10 µM [4] was under 50%, the inhibition at 10 µM [5] was under 50% and the inhibition at 10 µM [6] was under 50%.
c1ccc(CN2CCc3n[nH]c4nc(N5CCN(Cc6ccncc6)CC5)nc2c34)cc1 [Compound 92, 6-benzyl-4-[4-(pyridin-4-ylmethyl)piperazin-1-yl]-2,6,7,8-tetrahydro-1,2,3,5,6-pentaazaacenaphthylene] was tested, and the inhibition at 10 µM [1] was under 50%, the inhibition at 10 µM [2] was under 50% and the inhibition at 10 µM [3] was under 50%. The inhibition at 10 µM [4] was under 50%, the inhibition at 10 µM [5] was under 50% and the inhibition at 10 µM [6] was under 50%.
Compound COc1ccc(CN2CCc3n[nH]c4nc(Nc5ccc(N6CCN(C(=O)OCc7ccccc7)CC6)cc5)nc2c34)cc1 [Compound 119, benzyl 4-(4-{[6-(4-methoxybenzyl)-2,6,7,8-tetrahydro-1,2,3,5,6-pentaazaacenaphthylen-4-yl]amino}phenyl)piperazine-1-carboxylate] has an inhibition at 10 µM [1] of over 79%, an inhibition at 10 µM [2] of over 79% and an inhibition at 10 µM [3] of over 79%. For the same compound, the inhibition at 10 µM [4] was 50 to 79%, the inhibition at 10 µM [5] was 50 to 79% and the inhibition at 10 µM [6] was 50 to 79%.
With CC(=O)NCCNc1nc2c3c(n[nH]c3n1)CCN2Cc1ccccc1 [Compound 68, N-{2-[(6-benzyl-2,6,7,8-tetrahydro-1,2,3,5,6-pentaazaacenaphthylen-4-yl)amino]ethyl}acetamide] the inhibition at 10 µM [1] was under 50%, the inhibition at 10 µM [2] was under 50% and the inhibition at 10 µM [3] was under 50%. The inhibition at 10 µM [4] was under 50%, the inhibition at 10 µM [5] was under 50% and the inhibition at 10 µM [6] was under 50%.
For COc1cc(OC)nc(CN2CCN(c3nc4c5c(n[nH]c5n3)CCN4Cc3ccccc3)CC2)n1 [Compound 20, 6-benzyl-4-{4-[(4,6-dimethoxypyrimidin-2-yl)methyl]piperazin-1-yl}-2,6,7,8-tetrahydro-1,2,3,5,6-pentaazaacenaphthylene], the inhibition at 10 µM [1] was under 50%, the inhibition at 10 µM [2] was under 50% and the inhibition at 10 µM [3] was under 50%. It also gave an inhibition at 10 µM [4] of under 50%, an inhibition at 10 µM [5] of under 50% and an inhibition at 10 µM [6] of under 50%.
For c1ccc(CN2CCc3n[nH]c4nc(NCCCN5CCCCC5)nc2c34)cc1 [Compound 90, 6-benzyl-N-(3-piperidin-1-ylpropyl)-2,6,7,8-tetrahydro-1,2,3,5,6-pentaazaacenaphthylen-4-amine], the inhibition at 10 µM [1] was over 79%, the inhibition at 10 µM [2] was over 79% and the inhibition at 10 µM [3] was over 79%. For the same compound, the inhibition at 10 µM [4] was over 79%, the inhibition at 10 µM [5] was over 79% and the inhibition at 10 µM [6] was over 79%.
COc1ccc(CN2CCCc3n[nH]c4nc(NCc5ccc(Cl)cc5)nc2c34)cc1 [Compound 253, N-(4-chlorobenzyl)-6-(4-methoxybenzyl)-6,7,8,9-tetrahydro-2H-1,2,3,5,6-pentaazabenzo[cd]azulen-4-amine] was tested, and the inhibition at 10 µM [1] was under 50%, the inhibition at 10 µM [2] was under 50% and the inhibition at 10 µM [3] was under 50%. It also gave an inhibition at 10 µM [4] of 50 to 79%, an inhibition at 10 µM [5] of under 50% and an inhibition at 10 µM [6] of under 50%.
Compound c1ccc(CN2CCc3n[nH]c4nc(NCc5cccc6ccccc56)nc2c34)cc1 [Compound 7, 6-benzyl-N-(1-naphthylmethyl)-2,6,7,8-tetrahydro-1,2,3,5,6-pentaazaacenaphthylen-4-amine] has an inhibition at 10 µM [1] of under 50%, an inhibition at 10 µM [2] of over 79% and an inhibition at 10 µM [3] of over 79%. It also gave an inhibition at 10 µM [4] of under 50%, an inhibition at 10 µM [5] of over 79% and an inhibition at 10 µM [6] of under 50%.
COc1ccc(CNc2nc3c4c(n[nH]c4n2)CCN3Cc2ccccc2)cc1OC [Compound 47, 6-benzyl-N-(3,4-dimethoxybenzyl)-2,6,7,8-tetrahydro-1,2,3,5,6-pentaazaacenaphthylen-4-amine] showed an inhibition at 10 µM [1] of under 50%, an inhibition at 10 µM [2] of under 50% and an inhibition at 10 µM [3] of under 50%. It also gave an inhibition at 10 µM [4] of under 50%, an inhibition at 10 µM [5] of under 50% and an inhibition at 10 µM [6] of under 50%.
O=C(NCc1ccccc1)C1CN(Cc2ccccc2)c2nc(NCCc3c[nH]c4ccccc34)nc3[nH]nc1c23 (stereo not drawn) [Compound 226, N,6-dibenzyl-4-{[2-(1H-indol-3-yl)ethyl]amino}-2,6,7,8-tetrahydro-1,2,3,5,6-pentaazaacenaphthylene-8-carboxamide] showed an inhibition at 10 µM [1] of over 79%, an inhibition at 10 µM [2] of over 79% and an inhibition at 10 µM [3] of over 79%. The inhibition at 10 µM [4] was over 79%, the inhibition at 10 µM [5] was over 79% and the inhibition at 10 µM [6] was over 79%.
